Usually IC50 stands for the point on the concentration scale where inhibition reaches its midpoint.

Where only a bound is given, the exact number is not on record here.

Sequence of recombinant human integrin αVβ6 (P06756 31-992): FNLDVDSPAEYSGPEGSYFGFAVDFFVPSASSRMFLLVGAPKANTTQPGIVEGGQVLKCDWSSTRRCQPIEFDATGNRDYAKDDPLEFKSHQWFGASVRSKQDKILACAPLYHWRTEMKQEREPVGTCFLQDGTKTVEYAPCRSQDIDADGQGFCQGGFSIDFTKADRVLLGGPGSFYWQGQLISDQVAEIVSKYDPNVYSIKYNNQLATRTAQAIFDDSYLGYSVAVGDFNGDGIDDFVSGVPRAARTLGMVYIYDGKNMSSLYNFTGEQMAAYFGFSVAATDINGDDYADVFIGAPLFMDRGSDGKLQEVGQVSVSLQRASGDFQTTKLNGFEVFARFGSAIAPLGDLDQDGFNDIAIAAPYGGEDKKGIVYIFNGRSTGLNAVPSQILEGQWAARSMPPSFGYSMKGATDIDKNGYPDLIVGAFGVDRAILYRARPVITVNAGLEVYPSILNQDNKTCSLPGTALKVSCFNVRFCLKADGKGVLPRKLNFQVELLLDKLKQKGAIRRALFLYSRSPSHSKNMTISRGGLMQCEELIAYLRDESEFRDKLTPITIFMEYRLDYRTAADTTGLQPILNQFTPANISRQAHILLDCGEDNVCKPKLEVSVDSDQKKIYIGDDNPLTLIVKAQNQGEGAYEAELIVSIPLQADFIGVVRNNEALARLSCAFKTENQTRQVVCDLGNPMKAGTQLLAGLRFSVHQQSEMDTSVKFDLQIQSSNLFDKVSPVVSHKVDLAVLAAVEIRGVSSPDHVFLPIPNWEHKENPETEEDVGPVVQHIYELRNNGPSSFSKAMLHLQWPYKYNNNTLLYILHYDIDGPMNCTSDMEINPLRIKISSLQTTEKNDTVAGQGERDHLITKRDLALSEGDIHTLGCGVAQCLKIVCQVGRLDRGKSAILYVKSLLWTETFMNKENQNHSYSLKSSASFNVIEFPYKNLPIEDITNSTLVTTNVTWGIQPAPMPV
Sequence of recombinant human integrin αVβ6 (P18564 22-707): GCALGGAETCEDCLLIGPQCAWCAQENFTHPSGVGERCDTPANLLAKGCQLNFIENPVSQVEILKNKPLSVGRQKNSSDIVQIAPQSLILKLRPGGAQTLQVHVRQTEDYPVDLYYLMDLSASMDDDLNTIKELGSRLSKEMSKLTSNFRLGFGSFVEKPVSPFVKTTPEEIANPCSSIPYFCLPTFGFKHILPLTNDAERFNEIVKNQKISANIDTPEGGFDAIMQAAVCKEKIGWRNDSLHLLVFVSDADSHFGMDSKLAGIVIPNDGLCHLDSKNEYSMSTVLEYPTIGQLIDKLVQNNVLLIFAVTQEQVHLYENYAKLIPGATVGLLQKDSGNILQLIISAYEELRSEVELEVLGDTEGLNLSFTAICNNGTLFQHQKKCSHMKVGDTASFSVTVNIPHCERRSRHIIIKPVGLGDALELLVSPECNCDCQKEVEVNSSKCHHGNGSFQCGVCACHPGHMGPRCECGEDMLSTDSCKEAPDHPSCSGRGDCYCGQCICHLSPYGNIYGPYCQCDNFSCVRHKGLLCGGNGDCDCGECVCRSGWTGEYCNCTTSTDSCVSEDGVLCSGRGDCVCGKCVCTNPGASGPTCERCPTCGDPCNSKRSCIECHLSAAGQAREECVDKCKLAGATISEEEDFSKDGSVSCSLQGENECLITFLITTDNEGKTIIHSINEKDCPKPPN

The experiment addresses recombinant human integrin αVβ6 (Homo sapiens (Human), UniProt P06756+P18564). The experiment in a line: Solid phase integrin αVβ6 binding assay. The settings on record: inhibition of recombinant TGFβ1 LAP binding to coated integrin, IC50 presented in four ranges, read-out: αvβ6 Inhibition IC50 (nM) - range. In outline:
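Plates coated with recombinant human αVβ6 (2 μg/mL) and blocked; compounds competed with TGFβ1 LAP (0.67 μg/mL) in Mn2+ (0.5 mM)/BSA/sucrose TBS for 2 h at 25° C. Bound LAP detected by biotin anti-LAP and peroxidase-streptavidin; IC50 by four-parameter logistic fit.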
Consider `O=C(O)[C@H](CCN(CCCCc1ccc2c(n1)NCCC2)CC(F)F)Nc1cc(-n2cccn2)ncn1` [Compound 98, (S)-2-((6-(1H-pyrazol-1-yl)pyrimidin-4-yl)amino)-4-((2,2-difluoroethyl) (4-(5,6,7,8-tetrahydro-1,8-naphthyridin-2-yl)butyl)amino) butanoic Acid], for which the IC50 is above 1000 nM.

Consider `CO[C@H](C)CN(CCCCc1ccc2c(n1)NCCC2)CC[C@H](Nc1ncc(C#N)cn1)C(=O)O` [Compound 68, (S)-2-((5-cyanopyrimidin-2-yl)amino)-4-(((R)-2-methoxypropyl) (4-(5,6,7,8-tetrahydro-1,8-naphthyridin-2-yl)butyl)amino) butanoic Acid], for which the IC50 is below 50 nM.

Turning to `O=C(O)[C@H](CCN(CCCCc1ccc2c(n1)NCCC2)CC(F)F)Nc1ccnc(C(F)(F)F)n1` [Compound 97, (S)-4-((2,2-difluoroethyl) (4-(5,6,7,8-tetrahydro-1,8-naphthyridin-2-yl)butyl)amino)-2-((2-(trifluoromethyl)pyrimidin-4-yl)amino) butanoic Acid], the IC50 was above 1000 nM. Next, `COC[C@@H](F)CN(CCCCc1ccc2c(n1)NCCC2)CC[C@H](Nc1ncnc2c1cnn2C)C(=O)O` [Compound 105, (S)-4-(((S)-2-fluoro-3-methoxypropyl) (4-(5,6,7,8-tetrahydro-1,8-naphthyridin-2-yl)butyl)amino)-2-((1-methyl-1H-pyrazolo[3,4-d]pyrimidin-4-yl)amino) butanoic Acid]: below 50 nM; `CO[C@H](C)CN(CCCCc1ccc2c(n1)NCCC2)CC[C@H](Nc1ncc(C(F)(F)F)cn1)C(=O)O` [Compound 69, (S)-4-(((R)-2-methoxypropyl) (4-(5,6,7,8-tetrahydro-1,8-naphthyridin-2-yl)butyl)amino)-2-((5-(trifluoromethyl)pyrimidin-2-yl)amino) butanoic Acid]: below 50 nM.

Take `COCCN(CCCCc1ccc2c(n1)NCCC2)CC[C@H](Nc1cc(C)nc(C(F)(F)F)n1)C(=O)O` [Compound 26, (S)-4-((2-methoxyethyl) (4-(5,6,7,8-tetrahydro-1,8-naphthyridin-2-yl)butyl)amino)-2-((6-methyl-2-(trifluoromethyl)pyrimidin-4-yl)amino) butanoic Acid]: the IC50 is below 50 nM. Consider `COCCN(CCCCc1ccc2c(n1)NCCC2)CC[C@H](Nc1nc(C)nc2ccccc12)C(=O)O` [Compound 10, (S)-4-((2-methoxyethyl) (4-(5,6,7,8-tetrahydro-1,8-naphthyridin-2-yl)butyl)amino)-2-((2-methylquinazolin-4-yl)amino) butanoic Acid], for which the IC50 was below 50 nM.

With `O=C(O)[C@H](CCN(CCCCc1ccc2c(n1)NCCC2)CC1(F)COC1)Nc1ncnc2ccccc12` [Compound 147, (S)-4-(((3-fluorooxetan-3-yl)methyl) (4-(5,6,7,8-tetrahydro-1,8-naphthyridin-2-yl)butyl)amino)-2-(quinazolin-4-ylamino) butanoic Acid], the IC50 is 50 to 250 nM.

With `COCCN(CCCCc1ccc2c(n1)NCCC2)CC[C@H](Nc1nccnc1C#N)C(=O)O` [Compound 67, (S)-2-((3-cyanopyrazin-2-yl)amino)-4-((2-methoxyethyl) (4-(5,6,7,8-tetrahydro-1,8-naphthyridin-2-yl)butyl)amino) butanoic Acid], the IC50 was below 50 nM. Next, `O=C(O)[C@H](CCN(CCCCc1ccc2c(n1)NCCC2)CCOc1ccc(F)cc1)Nc1ncc(Br)cn1` [Compound 144, (S)-2-((5-bromopyrimidin-2-yl)amino)-4-((2-(4-fluorophenoxy)ethyl) (4-(5,6,7,8-tetrahydro-1,8-naphthyridin-2-yl)butyl)amino) butanoic Acid]: 50 to 250 nM; `O=C(O)[C@H](CCN(CCCCc1ccc2c(n1)NCCC2)CCOc1ccccn1)Nc1ncnc2ccccc12` [Compound 49, (S)-4-((2-(pyridin-2-yloxy)ethyl) (4-(5,6,7,8-tetrahydro-1,8-naphthyridin-2-yl)butyl)amino)-2-(quinazolin-4-ylamino) butanoic Acid]: below 50 nM; `Cc1nc(N[C@@H](CCN(CCCCc2ccc3c(n2)NCCC3)CCOc2cccnc2C)C(=O)O)c2ccc(F)cc2n1` [Compound 53, (S)-2-((7-fluoro-2-methylquinazolin-4-yl)amino)-4-((2-((2-methylpyridin-3-yl)oxy)ethyl) (4-(5,6,7,8-tetrahydro-1,8-naphthyridin-2-yl)butyl)amino) butanoic Acid]: below 50 nM.

Turning to `CS(=O)(=O)CCN(CCCCc1ccc2c(n1)NCCC2)CC[C@H](Nc1nc(-c2cccnc2)nc2ccccc12)C(=O)O` [Compound 107, (S)-4-((2-(methylsulfonyl)ethyl) (4-(5,6,7,8-tetrahydro-1,8-naphthyridin-2-yl)butyl)amino)-2-((2-(pyridin-3-yl)quinazolin-4-yl)amino) butanoic Acid], the half-inhibitory concentration (IC50) fell in the range of 250 to 1000 nM. Consider `CO[C@H](C)CN(CCCCc1ccc2c(n1)NCCC2)CC[C@H](Nc1ncnc2ccccc12)C(=O)O` [Compound 62, (S)-4-(((R)-2-methoxypropyl) (4-(5,6,7,8-tetrahydro-1,8-naphthyridin-2-yl)butyl)amino)-2-(quinazolin-4-ylamino) butanoic Acid], for which the IC50 is below 50 nM. Next, `O=C(O)[C@H](CCN(CCCCc1ccc2c(n1)NCCC2)CCOc1cncc(F)c1)Nc1ncnc2cccnc12` [Compound 60, (S)-4-((2-((5-fluoropyridin-3-yl)oxy)ethyl) (4-(5,6,7,8-tetrahydro-1,8-naphthyridin-2-yl)butyl)amino)-2-(pyrido[3,2-d]pyrimidin-4-ylamino) butanoic Acid]: below 50 nM; `O=C(O)[C@H](CCN(CCCCc1ccc2c(n1)NCCC2)C1CC1)Nc1ncnc2[nH]ncc12` [Compound 116, (S)-2-((1H-pyrazolo[3,4-d]pyrimidin-4-yl)amino)-4-(cyclopropyl(4-(5,6,7,8-tetrahydro-1,8-naphthyridin-2-yl)butyl)amino) butanoic Acid]: 50 to 250 nM. On to `COCCN(CCCCc1ccc2c(n1)NCCC2)CC[C@H](Nc1ncnc2c(Cl)cccc12)C(=O)O` [Compound 38, (S)-2-((8-chloroquinazolin-4-yl)amino)-4-((2-methoxyethyl) (4-(5,6,7,8-tetrahydro-1,8-naphthyridin-2-yl)butyl)amino) butanoic Acid], for which the IC50 is below 50 nM. The same measure for `Cn1ncc2c(N[C@@H](CCN(CCCF)CCCCc3ccc4c(n3)NCCC4)C(=O)O)ncnc21` [Compound 136, (S)-4-((3-fluoropropyl) (4-(5,6,7,8-tetrahydro-1,8-naphthyridin-2-yl)butyl)amino)-2-((1-methyl-1H-pyrazolo[3,4-d]pyrimidin-4-yl)amino) butanoic Acid]: below 50 nM; for `CO[C@H](C)CN(CCCCc1ccc2c(n1)NCCC2)CC[C@H](Nc1ccnc(-c2ccccc2)n1)C(=O)O` [Compound 73, (S)-4-(((R)-2-methoxypropyl) (4-(5,6,7,8-tetrahydro-1,8-naphthyridin-2-yl)butyl)amino)-2-((2-phenylpyrimidin-4-yl)amino) butanoic Acid]: below 50 nM. `Cn1ncc2c(N[C@@H](CCN(CCCCc3ccc4c(n3)NCCC4)CCOc3ccccc3)C(=O)O)ncnc21` [Compound 82, (S)-2-((1-methyl-1H-pyrazolo[3,4-d]pyrimidin-4-yl)amino)-4-((2-phenoxyethyl) (4-(5,6,7,8-tetrahydro-1,8-naphthyridin-2-yl)butyl)amino) butanoic Acid]: the 50% inhibitory concentration (IC50) is below 50 nM. Next, `CO[C@H](C)CN(CCCCc1ccc2c(n1)NCCC2)CC[C@H](Nc1ncc(C2CC2)cn1)C(=O)O` [Compound 124, (S)-2-((5-cyclopropylpyrimidin-2-yl)amino)-4-(((R)-2-methoxypropyl) (4-(5,6,7,8-tetrahydro-1,8-naphthyridin-2-yl)butyl)amino) butanoic Acid]: below 50 nM.

For the compound `O=C(O)[C@H](CCN(CCCCc1ccc2c(n1)NCCC2)CCOc1ccccn1)Nc1ncnc2c(Cl)cccc12` [Compound 48, (S)-2-((8-chloroquinazolin-4-yl)amino)-4-((2-(pyridin-2-yloxy)ethyl) (4-(5,6,7,8-tetrahydro-1,8-naphthyridin-2-yl)butyl)amino) butanoic Acid], the IC50 is below 50 nM. With `CO[C@H](C)CN(CCCCc1ccc2c(n1)NCCC2)CC[C@H](Nc1ncc(F)cn1)C(=O)O` [Compound 78, (S)-2-((5-fluoropyrimidin-2-yl)amino)-4-(((R)-2-methoxypropyl) (4-(5,6,7,8-tetrahydro-1,8-naphthyridin-2-yl)butyl)amino) butanoic Acid], the IC50 was below 50 nM.

On to `CN(C)C(=O)CN(CCCCc1ccc2c(n1)NCCC2)CC[C@H](Nc1ccnc(C(F)(F)F)n1)C(=O)O` [Compound 145, (S)-4-((2-(dimethylamino)-2-oxoethyl) (4-(5,6,7,8-tetrahydro-1,8-naphthyridin-2-yl)butyl)amino)-2-((2-(trifluoromethyl)pyrimidin-4-yl)amino) butanoic Acid], for which the IC50 was below 50 nM. For `COCCN(CCCCc1ccc2c(n1)NCCC2)CC[C@H](Nc1nccc2ccccc12)C(=O)O` [Compound 34, (S)-2-(isoquinolin-1-ylamino)-4-((2-methoxyethyl) (4-(5,6,7,8-tetrahydro-1,8-naphthyridin-2-yl)butyl)amino) butanoic Acid], the IC50 was above 1000 nM.

Take `CO[C@H](C)CN(CCCCc1ccc2c(n1)NCCC2)CC[C@H](Nc1ccncn1)C(=O)O` [Compound 106, (S)-4-(((R)-2-methoxypropyl) (4-(5,6,7,8-tetrahydro-1,8-naphthyridin-2-yl)butyl)amino)-2-(pyrimidin-4-ylamino) butanoic Acid]: the IC50 is below 50 nM. Consider `CCOCCN(CCCCc1ccc2c(n1)NCCC2)CC[C@H](Nc1ncnc2ccccc12)C(=O)O` [Compound 55, (S)-4-((2-ethoxyethyl) (4-(5,6,7,8-tetrahydro-1,8-naphthyridin-2-yl)butyl)amino)-2-(quinazolin-4-ylamino) butanoic Acid], for which the IC50 was below 50 nM.
